In ChEMBL document CHEMBL3991601, “The target landscape of clinical kinase drugs” (Science, 2017):
Activity calls are given as the source filed them. On the calls: in the data inactive means no Kd found up to 30 µM.

Experiments:
[1] = biological target: T1, Cyclin-dependent kinase-like 5 (Homo sapiens, UniProt O76039)
T1 sequence (O76039 whole entry): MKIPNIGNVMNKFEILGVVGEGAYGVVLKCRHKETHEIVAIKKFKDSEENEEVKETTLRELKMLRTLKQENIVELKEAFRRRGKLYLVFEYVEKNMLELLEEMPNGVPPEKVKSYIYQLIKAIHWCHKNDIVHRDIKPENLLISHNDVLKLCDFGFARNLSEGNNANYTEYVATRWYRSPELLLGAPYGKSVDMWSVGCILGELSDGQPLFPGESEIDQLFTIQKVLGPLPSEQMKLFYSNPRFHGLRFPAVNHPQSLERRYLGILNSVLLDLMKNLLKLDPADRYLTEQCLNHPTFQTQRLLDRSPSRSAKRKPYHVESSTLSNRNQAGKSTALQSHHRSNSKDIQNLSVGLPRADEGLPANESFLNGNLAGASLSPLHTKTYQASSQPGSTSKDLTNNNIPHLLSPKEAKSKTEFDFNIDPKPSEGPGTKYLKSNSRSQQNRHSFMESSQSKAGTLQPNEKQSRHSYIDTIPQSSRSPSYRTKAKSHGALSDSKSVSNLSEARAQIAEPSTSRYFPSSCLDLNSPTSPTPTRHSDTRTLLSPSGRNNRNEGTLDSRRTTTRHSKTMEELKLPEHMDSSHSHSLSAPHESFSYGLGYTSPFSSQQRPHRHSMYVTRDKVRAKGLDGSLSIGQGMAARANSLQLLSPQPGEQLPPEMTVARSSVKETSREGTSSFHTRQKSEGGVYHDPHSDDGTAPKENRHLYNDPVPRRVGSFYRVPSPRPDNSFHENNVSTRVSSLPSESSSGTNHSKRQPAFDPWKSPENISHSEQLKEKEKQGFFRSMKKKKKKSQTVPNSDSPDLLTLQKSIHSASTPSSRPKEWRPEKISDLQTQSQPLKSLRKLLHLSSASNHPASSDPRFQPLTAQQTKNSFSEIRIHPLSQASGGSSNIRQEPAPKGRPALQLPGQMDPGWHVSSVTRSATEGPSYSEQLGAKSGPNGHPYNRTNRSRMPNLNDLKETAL

[2] = biological target: T2, Tyrosine-protein kinase Mer (Homo sapiens, UniProt Q12866)
T2 sequence (Q12866 whole entry): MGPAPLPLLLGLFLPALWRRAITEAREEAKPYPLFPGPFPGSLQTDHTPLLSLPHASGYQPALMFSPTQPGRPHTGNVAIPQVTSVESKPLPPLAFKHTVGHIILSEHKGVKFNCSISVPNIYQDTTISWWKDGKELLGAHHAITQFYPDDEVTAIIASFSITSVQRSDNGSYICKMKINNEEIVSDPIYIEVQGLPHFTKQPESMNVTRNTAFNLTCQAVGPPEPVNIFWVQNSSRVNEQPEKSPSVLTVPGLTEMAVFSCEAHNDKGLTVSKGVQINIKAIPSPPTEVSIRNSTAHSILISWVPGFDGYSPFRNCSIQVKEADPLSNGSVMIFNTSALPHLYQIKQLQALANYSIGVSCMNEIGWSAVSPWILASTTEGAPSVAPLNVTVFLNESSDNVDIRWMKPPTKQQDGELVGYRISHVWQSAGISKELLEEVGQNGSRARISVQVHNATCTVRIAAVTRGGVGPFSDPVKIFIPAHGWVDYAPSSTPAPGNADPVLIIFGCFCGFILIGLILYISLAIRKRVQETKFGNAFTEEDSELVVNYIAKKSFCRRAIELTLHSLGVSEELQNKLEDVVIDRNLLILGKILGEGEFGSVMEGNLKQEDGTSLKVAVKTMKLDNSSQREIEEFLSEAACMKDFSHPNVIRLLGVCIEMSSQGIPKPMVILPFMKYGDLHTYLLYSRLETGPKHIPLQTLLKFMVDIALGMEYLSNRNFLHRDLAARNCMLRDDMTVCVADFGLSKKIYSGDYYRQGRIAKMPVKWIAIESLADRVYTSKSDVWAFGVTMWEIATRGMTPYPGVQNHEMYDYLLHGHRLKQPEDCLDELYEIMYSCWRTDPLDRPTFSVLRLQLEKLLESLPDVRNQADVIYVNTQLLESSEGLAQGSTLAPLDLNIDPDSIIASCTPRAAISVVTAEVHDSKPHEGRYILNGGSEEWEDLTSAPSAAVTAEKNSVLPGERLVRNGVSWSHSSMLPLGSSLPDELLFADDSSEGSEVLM

[3] = biological target: Serine/threonine-protein kinase N3 (Homo sapiens, UniProt Q6P5Z2)
Chain of Serine/threonine-protein kinase N3 (Q6P5Z2 whole entry): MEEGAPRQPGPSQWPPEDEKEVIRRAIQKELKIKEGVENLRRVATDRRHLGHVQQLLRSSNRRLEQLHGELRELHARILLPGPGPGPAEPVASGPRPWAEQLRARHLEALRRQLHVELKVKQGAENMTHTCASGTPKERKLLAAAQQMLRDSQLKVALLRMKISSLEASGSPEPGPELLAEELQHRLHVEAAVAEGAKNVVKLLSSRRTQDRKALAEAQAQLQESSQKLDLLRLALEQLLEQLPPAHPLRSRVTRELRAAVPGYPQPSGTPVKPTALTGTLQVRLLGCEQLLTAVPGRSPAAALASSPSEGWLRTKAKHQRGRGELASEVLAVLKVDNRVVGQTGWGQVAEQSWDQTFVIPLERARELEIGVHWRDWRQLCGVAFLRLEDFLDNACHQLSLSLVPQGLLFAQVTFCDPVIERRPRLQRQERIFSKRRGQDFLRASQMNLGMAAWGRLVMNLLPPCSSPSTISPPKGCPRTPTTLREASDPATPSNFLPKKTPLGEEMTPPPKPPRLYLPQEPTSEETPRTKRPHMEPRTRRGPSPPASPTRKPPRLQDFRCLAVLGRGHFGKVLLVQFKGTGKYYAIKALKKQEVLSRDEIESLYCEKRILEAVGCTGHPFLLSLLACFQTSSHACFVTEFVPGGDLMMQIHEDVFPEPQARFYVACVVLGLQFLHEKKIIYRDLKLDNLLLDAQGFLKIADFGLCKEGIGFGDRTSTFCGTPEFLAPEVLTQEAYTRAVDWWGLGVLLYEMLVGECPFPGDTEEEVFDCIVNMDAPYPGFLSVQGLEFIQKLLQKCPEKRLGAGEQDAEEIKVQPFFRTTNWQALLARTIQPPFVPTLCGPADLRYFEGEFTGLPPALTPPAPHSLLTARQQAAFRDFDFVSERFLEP

[4] = biological target: Serine/threonine-protein kinase PLK1 (Homo sapiens, UniProt P53350)
Chain of Serine/threonine-protein kinase PLK1 (P53350 whole entry): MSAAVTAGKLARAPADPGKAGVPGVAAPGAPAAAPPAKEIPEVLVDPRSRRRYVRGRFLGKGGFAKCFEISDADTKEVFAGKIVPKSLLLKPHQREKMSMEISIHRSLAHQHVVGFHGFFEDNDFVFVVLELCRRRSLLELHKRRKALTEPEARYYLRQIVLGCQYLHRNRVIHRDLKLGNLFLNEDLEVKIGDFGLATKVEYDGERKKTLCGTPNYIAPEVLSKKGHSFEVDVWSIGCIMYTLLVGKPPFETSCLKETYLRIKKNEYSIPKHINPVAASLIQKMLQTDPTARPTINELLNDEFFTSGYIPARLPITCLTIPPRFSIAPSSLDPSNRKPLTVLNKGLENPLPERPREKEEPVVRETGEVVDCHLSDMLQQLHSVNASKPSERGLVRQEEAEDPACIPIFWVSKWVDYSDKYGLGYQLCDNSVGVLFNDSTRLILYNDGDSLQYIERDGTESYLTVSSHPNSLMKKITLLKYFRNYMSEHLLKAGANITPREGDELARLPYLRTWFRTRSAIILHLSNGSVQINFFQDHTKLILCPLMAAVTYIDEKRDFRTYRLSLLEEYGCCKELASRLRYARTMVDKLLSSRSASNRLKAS

[5] = biological target: Serine/threonine-protein kinase ATR (Homo sapiens, UniProt Q13535)
Misshapen-like kinase 1 = Misshapen-like kinase 1 (Homo sapiens, UniProt Q8N4C8)
Chain of Misshapen-like kinase 1 (Q8N4C8 whole entry): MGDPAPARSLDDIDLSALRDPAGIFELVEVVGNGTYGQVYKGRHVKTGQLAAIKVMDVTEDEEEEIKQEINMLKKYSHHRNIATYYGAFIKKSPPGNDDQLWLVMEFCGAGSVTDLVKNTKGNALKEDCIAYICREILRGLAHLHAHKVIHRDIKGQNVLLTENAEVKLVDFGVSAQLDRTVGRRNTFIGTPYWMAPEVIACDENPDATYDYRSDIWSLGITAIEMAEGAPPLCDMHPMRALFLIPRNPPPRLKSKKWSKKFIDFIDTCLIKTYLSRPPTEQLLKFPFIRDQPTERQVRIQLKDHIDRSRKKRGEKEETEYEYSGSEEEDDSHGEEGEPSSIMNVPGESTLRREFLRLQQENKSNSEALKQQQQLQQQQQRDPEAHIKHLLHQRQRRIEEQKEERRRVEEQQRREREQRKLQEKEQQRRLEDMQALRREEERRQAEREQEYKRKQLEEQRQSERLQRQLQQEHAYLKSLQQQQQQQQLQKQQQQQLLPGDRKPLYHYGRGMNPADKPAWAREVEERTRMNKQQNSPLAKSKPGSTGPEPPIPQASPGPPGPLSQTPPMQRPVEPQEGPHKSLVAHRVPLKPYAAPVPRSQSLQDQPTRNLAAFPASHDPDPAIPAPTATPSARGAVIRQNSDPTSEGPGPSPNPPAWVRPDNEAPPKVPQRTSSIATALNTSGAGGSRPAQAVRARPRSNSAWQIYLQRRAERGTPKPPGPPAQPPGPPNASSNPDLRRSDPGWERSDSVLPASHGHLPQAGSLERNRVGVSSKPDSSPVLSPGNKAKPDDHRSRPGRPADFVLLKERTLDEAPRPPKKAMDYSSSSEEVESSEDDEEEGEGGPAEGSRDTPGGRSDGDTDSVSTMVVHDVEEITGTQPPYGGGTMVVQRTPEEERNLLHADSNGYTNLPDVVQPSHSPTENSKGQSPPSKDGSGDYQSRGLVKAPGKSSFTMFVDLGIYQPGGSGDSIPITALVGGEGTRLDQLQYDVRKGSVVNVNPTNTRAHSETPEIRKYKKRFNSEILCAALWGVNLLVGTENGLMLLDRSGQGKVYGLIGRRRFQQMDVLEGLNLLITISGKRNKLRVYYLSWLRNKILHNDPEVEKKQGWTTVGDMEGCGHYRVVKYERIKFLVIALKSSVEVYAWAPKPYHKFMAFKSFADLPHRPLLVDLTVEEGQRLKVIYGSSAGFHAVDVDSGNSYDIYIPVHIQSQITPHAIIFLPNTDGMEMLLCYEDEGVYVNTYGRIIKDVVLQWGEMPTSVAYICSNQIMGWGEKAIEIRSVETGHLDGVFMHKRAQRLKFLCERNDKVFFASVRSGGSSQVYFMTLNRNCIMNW

[6] = biological target: T3, Dual specificity protein kinase TTK (Homo sapiens, UniProt P33981)
T3 sequence (P33981 whole entry): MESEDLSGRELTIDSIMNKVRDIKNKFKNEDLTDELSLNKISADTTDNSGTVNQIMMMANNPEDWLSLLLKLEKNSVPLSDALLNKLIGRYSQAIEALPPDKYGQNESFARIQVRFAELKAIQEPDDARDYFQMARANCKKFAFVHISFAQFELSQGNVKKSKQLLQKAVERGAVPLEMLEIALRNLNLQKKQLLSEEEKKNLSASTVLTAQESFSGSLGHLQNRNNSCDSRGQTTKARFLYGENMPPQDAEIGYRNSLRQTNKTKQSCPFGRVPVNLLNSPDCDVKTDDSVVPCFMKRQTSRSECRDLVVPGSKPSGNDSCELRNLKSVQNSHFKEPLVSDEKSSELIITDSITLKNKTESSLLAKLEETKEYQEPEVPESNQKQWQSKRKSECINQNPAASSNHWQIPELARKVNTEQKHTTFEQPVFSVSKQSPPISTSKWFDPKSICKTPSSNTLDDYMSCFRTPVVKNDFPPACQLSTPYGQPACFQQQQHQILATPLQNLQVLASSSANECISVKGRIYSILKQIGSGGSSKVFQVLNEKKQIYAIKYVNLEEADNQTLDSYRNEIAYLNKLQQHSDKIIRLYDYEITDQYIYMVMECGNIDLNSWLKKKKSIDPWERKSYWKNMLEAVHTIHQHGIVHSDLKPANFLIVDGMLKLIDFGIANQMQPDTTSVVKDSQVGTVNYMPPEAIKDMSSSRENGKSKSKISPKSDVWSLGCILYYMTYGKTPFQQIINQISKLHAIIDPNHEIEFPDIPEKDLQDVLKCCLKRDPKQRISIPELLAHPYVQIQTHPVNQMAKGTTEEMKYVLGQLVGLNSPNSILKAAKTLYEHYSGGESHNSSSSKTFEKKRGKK

Row | SMILES | Kd [1] | Kd [2] | Kd [3] | Kd [4] | Kd [5] | Kd (Misshapen-like kinase 1) | Kd [6]
1 | C=CC(=O)N1CCC[C@H](n2c(=O)n(-c3ccc(Oc4ccccc4)cc3)c3c(N)ncnc32)C1 | > 30 µM (inactive) | > 30 µM (inactive) | > 30 µM (inactive) | > 30 µM (inactive) |  |  | 
2 | Cc1nc2cc(-c3nn(C(C)C)c4ncnc(N)c34)ccc2o1 | > 30 µM (inactive) | > 30 µM (inactive) | 0.013 µM | > 30 µM (inactive) | > 30 µM (inactive) |  | 
3 | Nc1ncnc2c1c(-c1cccc(OCc3ccccc3)c1)cn2[C@H]1C[C@@H](CN2CCC2)C1 [AEW-541] |  | > 30 µM (inactive) | 0.023 µM | > 30 µM (inactive) | 0.005 µM | > 30 µM (inactive) | 
4 | Cc1csc(-c2nnc(Nc3ccc(Oc4ncccc4-c4ccnc(N)n4)cc3)c3ccccc23)c1 [AMG-900] |  | > 30 µM (inactive) |  |  |  |  | > 30 µM (inactive)
5 | Cn1cnc2c(F)c(Nc3ccc(Br)cc3F)c(C(=O)NOCCO)cc21 [BINIMETINIB] |  | > 30 µM (inactive) | > 30 µM (inactive) | > 30 µM (inactive) | > 30 µM (inactive) |  | 
6 | COc1cc2ncnc(Oc3cccc(NC(=O)Nc4cc(C(C)(C)C(F)(F)F)on4)c3)c2cc1OC [CEP-32496] |  | > 30 µM (inactive) | > 30 µM (inactive) | > 30 µM (inactive) |  | > 30 µM (inactive) | > 30 µM (inactive)
7 | O=C(Nc1cc(C(F)(F)F)cc(C(F)(F)F)c1)c1cc(Cl)ccc1O [IMD-0354] | > 30 µM (inactive) | > 30 µM (inactive) |  |  | > 30 µM (inactive) | > 30 µM (inactive) | > 30 µM (inactive)
8 | CCOc1cc2ncc(C#N)c(Nc3ccc(F)c(Cl)c3)c2cc1NC(=O)/C=C/CN(C)C [PELITINIB] |  | > 30 µM (inactive) | > 30 µM (inactive) | > 30 µM (inactive) |  | > 30 µM (inactive) | > 30 µM (inactive)
9 | CNC(=O)c1cc(Oc2ccc(NC(=O)Nc3cc(C(C)(C)C)nn3-c3ccc4ncccc4c3)c(F)c2)ccn1 [REBASTINIB] |  | > 30 µM (inactive) | > 30 µM (inactive) | > 30 µM (inactive) |  | > 30 µM (inactive) | > 30 µM (inactive)
10 | Cc1cc(Nc2ncnc3ccc(NC4=NC(C)(C)CO4)cc23)ccc1Oc1ccn2ncnc2c1 [TUCATINIB] | > 30 µM (inactive) | > 30 µM (inactive) | > 30 µM (inactive) |  |  | > 30 µM (inactive) | 

Continued, values first:

Row | Kd [1] | Kd [2] | Kd [3] | Kd [4] | Kd [5] | Kd (Misshapen-like kinase 1) | Kd [6] | SMILES
11 | > 30 µM (inactive) | > 30 µM (inactive) | > 30 µM (inactive) | > 30 µM (inactive) | > 30 µM (inactive) | > 30 µM (inactive) |  | COc1c(OCCCN2CCOCC2)ccc2c1N=C(NC(=O)c1cnc(N)nc1)N1CCN=C21 [COPANLISIB]
12 | > 30 µM (inactive) | > 30 µM (inactive) | > 30 µM (inactive) | > 30 µM (inactive) | > 30 µM (inactive) |  |  | COCC(=O)NC/C=C/c1ccc2ncnc(Nc3ccc(Oc4ccc(C)nc4)c(C)c3)c2c1 [CP-724714]
13 | > 30 µM (inactive) |  | > 30 µM (inactive) | > 30 µM (inactive) | > 30 µM (inactive) | > 30 µM (inactive) | > 30 µM (inactive) | CNC(=O)c1cccc2cc(Oc3ccnc4cc(OCC5(N)CC5)c(OC)cc34)ccc12 [LUCITANIB]
14 | > 30 µM (inactive) | > 30 µM (inactive) | > 30 µM (inactive) |  | > 30 µM (inactive) | > 30 µM (inactive) | > 30 µM (inactive) | CNC(=O)c1nn(C)c2c1C(C)(C)Cc1cnc(Nc3ccc(N4CCN(C)CC4)cc3)nc1-2 [MILCICLIB]
15 |  | > 30 µM (inactive) | > 30 µM (inactive) |  |  | > 30 µM (inactive) |  | NC1(c2ccc(-c3nc4ccn5c(=O)[nH]nc5c4cc3-c3ccccc3)cc2)CCC1 [MK-2206]
16 |  | > 30 µM (inactive) |  |  |  |  | > 30 µM (inactive) | CC(=O)NCC(=O)N1[C@@H]2CC[C@H]1c1ccc(Nc3ncc(C(F)(F)F)c(NC4CCC4)n3)cc12 [PF-03814735]
17 | > 30 µM (inactive) | > 30 µM (inactive) | > 30 µM (inactive) | > 30 µM (inactive) | > 30 µM (inactive) |  |  | Cc1cnc(NC(=O)Nc2cc(Br)c(C)cc2OC[C@@H]2CNCCO2)cn1 [RABUSERTIB]
18 | > 30 µM (inactive) | > 30 µM (inactive) | > 30 µM (inactive) |  |  |  | > 30 µM (inactive) | CO[C@H]1C[C@@H]2CC[C@@H](C)[C@@](O)(O2)C(=O)C(=O)N2CCCC[C@H]2C(=O)O[C@H]([C@H](C)C[C@@H]2CC[C@@H](OP(C)(C)=O)[C@H](OC)C2)CC(=O)[C@H](C)/C=C(\C)[C@@H](O)[C@@H](OC)C(=O)[C@H](C)C[C@H](C)/C=C/C=C/C=C/1C [RIDAFOROLIMUS]
19 | > 30 µM (inactive) | > 30 µM (inactive) |  | > 30 µM (inactive) | > 30 µM (inactive) | > 30 µM (inactive) |  | O=c1[nH]ccc2cc(OC3CCNCC3)ccc12 [SAR-407899 FREE BASE]
20 |  | > 30 µM (inactive) |  |  |  |  | > 30 µM (inactive) | CCS(=O)(=O)c1cccc(-c2cc(C(=O)NC3CCN(C)CC3)c(C)c3[nH]c4ncc(C)cc4c23)c1 [TAK-901]
21 | > 30 µM (inactive) | > 30 µM (inactive) | > 30 µM (inactive) |  | > 30 µM (inactive) | > 30 µM (inactive) | > 30 µM (inactive) | COc1cc2c(Nc3ccc(Cl)c(Cl)c3F)ncnc2cc1OC[C@@H]1C[C@@H]2CN(C)C[C@@H]2C1 [TESEVATINIB]
22 | > 30 µM (inactive) | > 30 µM (inactive) | > 30 µM (inactive) |  | > 30 µM (inactive) | > 30 µM (inactive) | > 30 µM (inactive) | C[C@@H](NC(=O)c1ncnc(N)c1Cl)c1ncc(C(=O)Nc2cc(C(F)(F)F)c(Cl)cn2)s1 [TOVORAFENIB]
